Where “and” joins values, the source holds several entries; their conditions need not be identical. Identical values can stand only once. Like-named read-outs stand apart in the source and are kept apart here.
Tests used:
[1] = MTT cytotoxicity assay, HACAT cells; format: cell-based; conditions: human; for viability at 24 h, 100 µM: read-out: % Viability ± SD (at 100 μM) HACAT 24 h; for viability at 48 h, 100 µM: read-out: % Viability ± SD (at 100 μM) HACAT 48 h
Protocol: (§1) HEK293, HACAT, and HeLa cells were grown in modified Eagles’ minimum essential medium (EMEM, Gibco) with 10% fetal bovine serum (FBS, Gibco), 1% of 100 U/mL streptomycin and 100 U/mL penicillin (Gibco). Cells were seeded in culture flasks and maintained in an incubator at 37 °C in a humidified atmosphere with 5% CO2. After reaching 80–90% of confluence, cells were detached by incubation with 0.25% trypsin-0.2% EDTA (Gibco) for 5 min and plated for experiments.
(§2) This study examined cell cultures of HEK293, HACAT, and HeLa cells. The cytotoxicity of the test samples was carried out by the MTT (3-(4,5-dimethylthiazol-2-yl)-2,5-diphenyltetrazolium bromide) assay. The cells were seeded in 96-well microliter plates (2.0 × 10^4 cells/well). Stock solutions of the test compounds were prepared in DMSO. After 24 h, cells were treated with different concentrations of samples and diluted with media to obtain the final desired concentration. The treated cells were then incubated at 37 °C and 5% CO2 for 24 and 48 h. After incubation, the medium was replaced with 0.05% w/v of MTT solution in PBS and further incubated for 3 h. The solution was then discarded and DMSO was added to dissolve the formed formazan crystals. Each well’s absorbance (A) was measured at 570 nm using a microplate reader (FLUOstar Omega^TM, BMG Labtech, Ortenberg, Germany). All experiments were carried out in triplicate and repeated for at least three experiments.

[2] = FRAP (ferric reducing antioxidant power) assay; format: biochemical; conditions: Trolox equivalent
Source text: Three in vitro antioxidant assays (DPPH, FRAP, and ABTS) were utilized to evaluate the antioxidant property of the synthesized compounds. The DPPH (α, α-diphenyl-β-picrylhydrazyl) assay is the well-known approach to determine antioxidant activity using a stable free radical DPPH, measure the absorbance change, and calculate the absorbance change in the percentage of scavenging activity. […] For example, the ferric-tripyridyltriazine (Fe^3+-TPTZ, colorless) complex is reduced to ferrous tripyridyltriazine (Fe^2+-TPTZ) at low pH and introduces a blue color with maximum absorption at 593 nm. The change in absorbance is related to antioxidant activity. However, a significant limitation of these in vitro tests is the non-physiological measurement conditions (no enzymatic condition and no transition metal ion chelating activity); therefore, the results obtained may not reflect the antioxidant activity of the source material under the biological conditions that exist in humans and animals. The ABTS assay involves a more drastic radical that is chemically produced. The use of ABTS for antioxidant activity determination of hydrophilic and lipophilic pure compounds has attracted interest due to its solubility in organic and aqueous media and stability in a wide pH range [31].
The FRAP assay is a method for assessing antioxidant power. Briefly, the FRAP reagent was prepared from acetate buffer pH 3.6, 10 mM TPTZ solution in 40 mM HCl and 20 mM FeCl3.6 H2O in relative proportions of 10:1:1, v/v, respectively. The FRAP reagent was freshly prepared daily. A solution of 5 μL of the sample (3–300 μM, approx.) was mixed with 180 μL of the FRAP reagent in a 96-well plate. The mixture was shaken in the dark for 10 min and incubated at 37 °C for 20 min, and the absorbance was determined at 593 nm. The solution without the sample was used as a blank. All determinations were made in triplicate. Trolox was used as a standard antioxidant and plot the calibration curve between absorbance and concentration. Quercetin was applied as the reference compound. The FRAP values were calculated by comparing the absorbance change in the test sample and represented in μM of Trolox equivalent per μM of sample.

[3] = tested on: HeLa cells; assay: Cell cycle analysis by flow cytometry; format: cell-based; conditions: 24 h, 2f, 2j, quercetin at IC50, paclitaxel 5 μM
Protocol: The paclitaxel (5 μM) was performed as the positive control.
The treatment of HeLa cells and compounds was the same as in the apoptosis protocol. The cells were harvested for 200 μL and centrifuged at 600× g for 5 min and washed with PBS. The mixing cells were slowly added 200 μL of ice-cold 70% ethanol and incubated for at least 3 h at −20 °C. Cells were centrifuged and washed with PBS. Finally, cells were stained with 200 μL of Muse® cell cycle reagent and incubated at room temperature for 30 min in the dark. The cell was analyzed by flow cytometry (Guava Muse Cell Analyzer, Luminex, Austin, TX, USA).

[4] = MTT cytotoxicity assay, HEK293 cells; format: cell-based; conditions: human, HEK293 cells, 100 μM; for viability at 24 h, 100 µM: read-out: % Viability ± SD (at 100 μM) HEK293 24 h; for viability at 48 h, 100 µM: read-out: % Viability ± SD (at 100 μM) HEK293 48 h
Protocol: as §1, §2

[5] = tested on: HeLa cell; assay: MTT anticancer activity assay, HeLa cells; format: cell-based; conditions: for IC50 / viability at 100 µM: Homo sapiens; for IC50 / Anticancer activity on cervical cancer cells: HeLa
Protocol: as §1, §2

[6] = tested on: HeLa cells; assay: Cellular ROS assay (ROS deep red fluorescence kit); format: cell-based; conditions: pretreatment 50, 100, 150 μM for 24 h; 5 mM H2O2 30 min
Protocol: ROS is the main contributor to cell death. These reactive molecules are formed by several mechanisms and can be detected by various techniques. In order to investigate the level of cellular ROS after treatment with compounds, the accumulation of intracellular ROS in cells was quantified with a cellular ROS assay kit (ab186029, Abcam, Boston, USA) fluorescence assay. After pretreatment with 2f, 2j, and 3i at 50, 100, and 150 μM for 24 h, cell stress was induced with 5 mM hydrogen peroxide for 30 min. The cells in each well were collected and resuspended with a serum-free medium containing the ROS red probe. Subsequently, cells were incubated at 37 °C for 30 min in the dark, and fluorescence was read at Ex/Em = 650/675 nm.
In this study, Hela cells were seeded overnight at 20,000 cells/90 µL/well in a black wall/clear bottom 96-well plate. Cells included those untreated (control) and those pre-treated with compounds at various concentrations (50, 100, 150 μM) for 24 h. The ROS deep red assay solution (100 μL/well) was added and incubated at 5% CO2, 37 °C incubator for 30 min. The fluorescence signal was monitored at Ex/Em = 650/675 nm (cut off = 665 nm) with bottom read mode within 30 min (cellular ROS assay kit, ab186029, abcam).

[7] = 24 h, read-out: % Viability ± SD (at 100 μM) HeLa 24 h
[8] = 48 h, read-out: % Viability ± SD (at 100 μM) HeLa 48 h

IC50 ([5]; 24 h) [µM] | Compound | viability at 24 h, 100 µM [1] [%] | viability at 48 h, 100 µM [1] [%] | FRAP593nm Value ± SD (TE) [2] | Cell cycle phase arrest [3] | Cell population in G0/G1 phase [3] [%] | Cell population in G2/M phase [3] [%] | Cell population in S phase [3] | Cell population in S phase ([3]; listed as quercetin) [%] | viability at 24 h, 100 µM [4] [%] | viability at 48 h, 100 µM [4] [%] | viability at 100 µM [5, 7] [%] | viability at 100 µM [5, 8] [%] | Cellular ROS fluorescence intensity vs H2O2-treated cells [6] | Anticancer activity on cervical cancer cells ([5]; 24 h)
192.4 ± 1.27 | O=c1c(O)c(-c2ccc(O)c(O)c2)oc2cc(O)cc(O)c12 [Quercetin, quercetin, reference compound] | 85.6 ± 125 | 76.8 ± 2.32 | 3.35 ± 0.231 µM Trolox/1 µM of Synthesized Compounds | S phase arrest | 35.72 ± 2.67 | 26.40 ± 0.18 | 37.88 ± 2.75 % | 37.88 | 102 ± 1.58 | 86.6 ± 4.66 | 69.1 ± 1.93 | 19.2 ± 0.25 | – | –
191 ± 6.01 | O=C(c1ccccc1)c1c(-c2ccccc2)oc2c(O)c(O)ccc2c1=O [2f, 3-Benzoyl-7,8-dihydroxy-2-phenyl-4H-chromen-4-one] | 81.6 ± 8.46 | 77.1 ± 5.03 | 1.70 ± 0.138 µM Trolox/1 µM of Synthesized Compounds | S phase arrest | 41.26 ± 1.21 | 24.71 ± 4.02 | 34.03% and 34.03 ± 3.81 % | – | 105 ± 1.19 | 74.7 ± 0.83 | 109.3 ± 0.92 | 29.2 ± 0.4 | significantly reduced | contained anticancer activity
101 ± 3.18 | O=C(Oc1ccc2c(=O)c(C(=O)c3ccccc3)c(-c3ccccc3)oc2c1O)c1ccccc1 [2j, 3-Benzoyl-8-hydroxy-4-oxo-2-phenyl-4H-chromen-7-yl benzoate] | 72.6 ± 5.53 | 58 ± 2.63 | 0.34 ± 0.078 µM Trolox/1 µM of Synthesized Compounds | S phase arrest | 32.90 ± 4.05 | 35.49 ± 4.98 | 31.61% and 31.61 ± 0.93 % | – | 96 ± 2.62 | 71.6 ± 5.19 | 65.2 ± 1.42 | 30 ± 1.23 | significantly reduced | contained anticancer activity

Source: article PMC10096453, “One-Pot Synthesis and Evaluation of Antioxidative Stress and Anticancer Properties of an Active Chromone Derivative” (Molecules, 2023)
